Data reported in the NIST ThermoML archive (doi:10.1016/j.jct.2016.08.001).

Assays:
[1] = xn = mol fraction of the nth substance listed; settings: 100 kPa, Liquid; for speed of sound: Frequency=3 MHz, Sing-around technique in a fixed-path interferometer; for mass density: Vibrating tube method
[2] = refractive index (Na D-line) (dimensionless); xn = mol fraction of the nth substance listed; settings: 100 kPa, Liquid, Standard Abbe refractometry

O=Cc1ccccc1 [benzaldehyde] + CCOC(=O)OCC
Settings	mass density, [1] [kg/m3]	refractive index, [2]	speed of sound, [1] [m/s]
298.15 K, x2 = 0	1041	1.541	1457.3
298.15 K, x2 = 0.0933	1035	1.5244	1430.7
298.15 K, x2 = 0.1658	1030.2	1.5118	1409
298.15 K, x2 = 0.267	1023.4	1.4947	1379.1
298.15 K, x2 = 0.36	1016.9	1.4794	1352.5
298.15 K, x2 = 0.4554	1010.4	1.4638	1325.4
298.15 K, x2 = 0.5605	1003	1.4472	1296.3
298.15 K, x2 = 0.6547	996.2	1.4325	1269.8
298.15 K, x2 = 0.7716	987.4	1.415	1238.2
298.15 K, x2 = 0.8473	981.4	1.4039	1217
303.15 K, x2 = 0	1036.5	1.5383	1438.9
303.15 K, x2 = 0.0933	1030.6	1.522	1412.1
303.15 K, x2 = 0.1658	1025.7	1.5094	1389.9
303.15 K, x2 = 0.267	1018.7	1.4924	1359.9
303.15 K, x2 = 0.36	1012.2	1.4771	1333.1
303.15 K, x2 = 0.4554	1005.4	1.4616	1305.8
303.15 K, x2 = 0.5605	997.9	1.445	1276.5
303.15 K, x2 = 0.6547	991	1.4304	1249.9
303.15 K, x2 = 0.7716	982.1	1.4129	1218.1
303.15 K, x2 = 0.8473	976	1.4017	1196.8
308.15 K, x2 = 0	1032	1.5357	1420.6
308.15 K, x2 = 0.0933	1026.2	1.5195	1393.5
308.15 K, x2 = 0.1658	1021.2	1.5071	1371.1
308.15 K, x2 = 0.267	1014.1	1.4902	1340.8
308.15 K, x2 = 0.36	1007.4	1.475	1313.8
308.15 K, x2 = 0.4554	1000.6	1.4596	1286.3
308.15 K, x2 = 0.5605	992.9	1.443	1256.9
308.15 K, x2 = 0.6547	985.8	1.4283	1230.1
308.15 K, x2 = 0.7716	976.8	1.4108	1198.1
308.15 K, x2 = 0.8473	970.7	1.3995	1176.7
313.15 K, x2 = 0	1027.5	1.5332	1402.4
313.15 K, x2 = 0.0933	1021.8	1.5171	1375
313.15 K, x2 = 0.1658	1016.7	1.5048	1352.4
313.15 K, x2 = 0.267	1009.5	1.488	1321.8
313.15 K, x2 = 0.36	1002.7	1.4728	1294.6
313.15 K, x2 = 0.4554	995.6	1.4574	1267
313.15 K, x2 = 0.5605	987.9	1.4409	1237.4
313.15 K, x2 = 0.6547	980.7	1.4262	1210.4
313.15 K, x2 = 0.7716	971.6	1.4087	1178.3
313.15 K, x2 = 0.8473	965.4	1.3973	1156.8
318.15 K, x2 = 0	1023	1.5307	1384.4
318.15 K, x2 = 0.0933	1017.3	1.515	1356.6
318.15 K, x2 = 0.1658	1012.2	1.5028	1333.8
318.15 K, x2 = 0.267	1004.9	1.486	1303.3
318.15 K, x2 = 0.36	997.9	1.4708	1275.8
318.15 K, x2 = 0.4554	990.7	1.4555	1248
318.15 K, x2 = 0.5605	982.8	1.439	1218.3
318.15 K, x2 = 0.6547	975.6	1.4242	1191.5
318.15 K, x2 = 0.7716	966.4	1.4067	1159
318.15 K, x2 = 0.8473	960.1	1.3952	1137.3
323.15 K, x2 = 0	1018.4	1.5282	1366.4
323.15 K, x2 = 0.0933	1012.8	1.5124	1339.3
323.15 K, x2 = 0.1658	1007.7	1.5003	1316.3
323.15 K, x2 = 0.267	1000.2	1.4836	1285.3
323.15 K, x2 = 0.36	993.1	1.4685	1257.7
323.15 K, x2 = 0.4554	985.8	1.4532	1229.8
323.15 K, x2 = 0.5605	977.7	1.4368	1199.9
323.15 K, x2 = 0.6547	970.4	1.4221	1173.1
323.15 K, x2 = 0.7716	961.1	1.4046	1140.6
323.15 K, x2 = 0.8473	954.8	1.3931	1118.8

N#Cc1ccccc1 [benzonitrile] + CCOC(=O)OCC
Settings	mass density, [1] [kg/m3]	refractive index, [2]	speed of sound, [1] [m/s]
298.15 K, x2 = 0	1000.6	1.526	1415.6
298.15 K, x2 = 0.0854	998.8	1.5123	1396.3
298.15 K, x2 = 0.1886	996.7	1.4963	1373.1
298.15 K, x2 = 0.2618	994.9	1.4851	1356.1
298.15 K, x2 = 0.3642	992.1	1.4698	1331.9
298.15 K, x2 = 0.462	989.3	1.4556	1308.6
298.15 K, x2 = 0.5563	986.3	1.442	1286.1
298.15 K, x2 = 0.6599	982.7	1.4275	1261
298.15 K, x2 = 0.7732	978.5	1.412	1233.3
298.15 K, x2 = 0.8703	974.6	1.3991	1209.4
303.15 K, x2 = 0	995.9	1.5235	1398.1
303.15 K, x2 = 0.0854	994	1.5098	1378.5
303.15 K, x2 = 0.1886	991.9	1.494	1354.8
303.15 K, x2 = 0.2618	990	1.4828	1337.7
303.15 K, x2 = 0.3642	987.2	1.4676	1313.1
303.15 K, x2 = 0.462	984.3	1.4533	1289.5
303.15 K, x2 = 0.5563	981.2	1.4398	1266.7
303.15 K, x2 = 0.6599	977.5	1.4253	1241.3
303.15 K, x2 = 0.7732	973.2	1.4098	1213.3
303.15 K, x2 = 0.8703	969.2	1.3969	1189.2
308.15 K, x2 = 0	991.4	1.5209	1380.8
308.15 K, x2 = 0.0854	989.5	1.5074	1360.8
308.15 K, x2 = 0.1886	987.2	1.4916	1336.7
308.15 K, x2 = 0.2618	985.3	1.4806	1319.3
308.15 K, x2 = 0.3642	982.3	1.4653	1294.4
308.15 K, x2 = 0.462	979.3	1.4511	1270.6
308.15 K, x2 = 0.5563	976.1	1.4376	1247.4
308.15 K, x2 = 0.6599	972.3	1.4231	1221.8
308.15 K, x2 = 0.7732	967.8	1.4076	1193.5
308.15 K, x2 = 0.8703	963.7	1.3946	1169.1
313.15 K, x2 = 0	986.9	1.5184	1363.6
313.15 K, x2 = 0.0854	984.9	1.505	1343.2
313.15 K, x2 = 0.1886	982.5	1.4893	1318.7
313.15 K, x2 = 0.2618	980.5	1.4783	1301
313.15 K, x2 = 0.3642	977.4	1.4631	1275.9
313.15 K, x2 = 0.462	974.2	1.4489	1251.8
313.15 K, x2 = 0.5563	970.9	1.4353	1228.3
313.15 K, x2 = 0.6599	967	1.4208	1202.4
313.15 K, x2 = 0.7732	962.4	1.4054	1173.8
313.15 K, x2 = 0.8703	958.2	1.3924	1149.2
318.15 K, x2 = 0	982.5	1.5158	1346.5
318.15 K, x2 = 0.0854	980.4	1.5025	1325.7
318.15 K, x2 = 0.1886	977.9	1.487	1300.8
318.15 K, x2 = 0.2618	975.8	1.4761	1282.9
318.15 K, x2 = 0.3642	972.5	1.4609	1257.4
318.15 K, x2 = 0.462	969.2	1.4466	1233
318.15 K, x2 = 0.5563	965.8	1.4332	1209.3
318.15 K, x2 = 0.6599	961.7	1.4187	1183.2
318.15 K, x2 = 0.7732	956.9	1.4032	1154.3
318.15 K, x2 = 0.8703	952.7	1.3902	1129.5
323.15 K, x2 = 0	977.9	1.5133	1329.5
323.15 K, x2 = 0.0854	975.8	1.5002	1308.3
323.15 K, x2 = 0.1886	973.2	1.4848	1282.9
323.15 K, x2 = 0.2618	971	1.4739	1264.9
323.15 K, x2 = 0.3642	967.6	1.4587	1239.3
323.15 K, x2 = 0.462	964.2	1.4445	1214.5
323.15 K, x2 = 0.5563	960.6	1.431	1190.6
323.15 K, x2 = 0.6599	956.5	1.4165	1164.1
323.15 K, x2 = 0.7732	951.5	1.401	1135
323.15 K, x2 = 0.8703	947.1	1.3881	1110
